Assay [1] deals with Human breast cancer cells SK-BR-3 (WT). Kind of assay: Cell proliferation inhibition assay (CTG), SK-BR-3 (WT). In kind it is cell-based. Conditions: Homo sapiens, 72 h, SK-BR-3 (WT) cells, 3 days incubation, CTG readout. On the procedure:
(§1) Cell Proliferation Inhibition Assay
(§2) 1. Experimental Materials
(§3) II. Experimental Protocol
(§4) • a) Cell suspension was prepared; • b) The medium was removed from the culture flask; • c) The cells were rinsed once with PBS; • d) Trypsin was added for digestion, and the cells were centrifuged and collected; • e) The cells were resuspended in medium, counted and adjusted to an appropriate concentration; • f) 100 µL of cell suspension was added to each well of a 96-well plate. One plate was used for each cell line, which was incubated overnight in a 37 °C, 5% CO2 incubator.
(§5) 2. Treatment of Compounds
(§6) • a) Serial dilutions of the test compounds were prepared: The compound was prepared as a 10 mM stock solution. 18 µL of the stock solution was dissolved in 982 µL of the culture medium containing DMSO, followed by 4-fold serial dilutions in culture medium containing 0.5% DMSO to give 9 concentrations. The concentrations of the diluted compound were as follows: 180000 nM, 45000 nM, 11250 nM, 2812.5 nM, 703.13 nM, 175.78 nM, 43.95 nM, 10.99 nM, and 2.75 nM. • b) After thorough mixing, 20 µL of each compound solution was added to the cell plate containing 100 µL of cells per well. Each concentration was tested in triplicate. Final concentrations of the compound were as follows: 30000 nM, 7500 nM, 1875 nM, 468.75 nM, 117.188 nM, 29.30 nM, 7.32 nM, 1.83 nM, and 0.46 nM. • c) The cells were transferred into the incubator and incubated for 3 days.
(§7) The cell plate was removed, 25 µL of CTG reagent was added to each well of the 96-well plate, the mixture was shook on a plate shaker at room temperature for 10 minutes, and the plate was read.
(§8) The cell survival rate was calculated using the following formula (% Cell Survival): % Cell Survival = 100% × (OD_Sample−OD_LCave)/(OD_HC−OD_LCave) [formula] • OD_HC: Reading of the 0.1‰ DMSO control group • OD_Sample: Reading of cells treated with compound • OD_LCave: Reading of blank medium
(§9) Analyzed by Prism: Dose-response-Inhibition - Log (inhibitor) vs response (three parameters for the best fit).

For assay [2], the system named is Human breast cancer cells T47D (H1047R). Kind of assay: Cell proliferation inhibition assay (CTG), T47D (H1047R). The assay is classed as cell-based. As to conditions: Homo sapiens, 72 h, 3 days incubation, CTG readout. The procedure:
as §1, §2, §3, §4, §5, §6, §7, §8, §9

pIC50: −log10 of the molar value.

As for `Cc1cc([C@@H](C)Nc2ccc(Cl)nc2C(=O)O)c2oc3c(c(=O)c2c1)CCN(S(=O)(=O)C1(C)CC1)C3` [Compound C113], the values for the pIC50 in assay [1] and in assay [2] were below 5.30 and at least 6.30, respectively.

For the compound `C[C@@H](Nc1ccc(Cl)nc1C(=O)O)c1cc(F)cc2c(=O)c3c(oc12)CN(S(=O)(=O)c1c(F)cccc1F)CC3` [Compound C114], the pIC50 was below 5.30 in assay [1] and at least 6.30 in assay [2].

With `C[C@@H](Nc1ccc(Cl)nc1C(=O)O)c1cc(F)cc2c(=O)c3c(oc12)CN(S(=O)(=O)c1ccccc1C(F)(F)F)CC3` [Compound C115], the pIC50 is below 5.30 in assay [1] and at least 6.30 in assay [2].

Consider `C[C@@H]1COCCN1S(=O)(=O)N1CCc2c(oc3c([C@@H](C)Nc4ccc(Cl)nc4C(=O)O)cc(F)cc3c2=O)C1` [Compound C116], for which the negative logarithm of the IC50 (pIC50) is below 5.30 in assay [1] and at least 6.30 in assay [2].

Consider `C[C@@H](Nc1ccc(Cl)nc1C(=O)O)c1cc(F)cc2c(=O)c3c(oc12)CN(S(=O)(=O)N1CCOC[C@@H]1C)CC3` [Compound C117], for which the values for the negative-log IC50 (pIC50) in assay [1] and in assay [2] were below 5.30 and at least 6.30, respectively.

As to `Cc1noc(C)c1S(=O)(=O)N1CCc2c(oc3c([C@@H](C)Nc4ccc(Cl)nc4C(=O)O)cc(F)cc3c2=O)C1` [Compound C118], the negative-log IC50 (pIC50) in assay [1] is below 5.30; in assay [2] it was at least 6.30.

Turning to `C[C@@H](Nc1ccc(Cl)nc1C(=O)O)c1cc(F)cc2c(=O)c3c(oc12)CN(S(=O)(=O)c1cccc2c1CCO2)CC3` [Compound C120], the pIC50 in assay [1] is below 5.30; in assay [2] it was at least 6.30.

With `C[C@@H](Nc1ccc(Cl)nc1C(=O)O)c1cc(F)cc2c(=O)c3c(oc12)CN(S(=O)(=O)N1CCC(F)(F)CC1)CC3` [Compound C121], the pIC50 in assay [1] was below 5.30; in assay [2], at least 6.30.

With `C[C@@H]1CN(S(=O)(=O)N2CCc3c(oc4c([C@@H](C)Nc5ccc(Cl)nc5C(=O)O)cc(F)cc4c3=O)C2)CCO1` [Compound C122], the pIC50 in assay [1] is below 5.30; in assay [2], at least 6.30.

Consider `C[C@H]1CN(S(=O)(=O)N2CCc3c(oc4c([C@@H](C)Nc5ccc(Cl)nc5C(=O)O)cc(F)cc4c3=O)C2)CCO1` [Compound C123], for which the pIC50 is below 5.30 in assay [1] and at least 6.30 in assay [2].

Consider `C[C@@H](Nc1ccc(Cl)nc1C(=O)O)c1cc(F)cc2c(=O)c3c(oc12)CN(S(=O)(=O)c1cccc(=O)n1C)CC3` [Compound C124], for which the pIC50 in assay [1] is below 5.30; in assay [2], 5.70 to 6.30.

For the compound `Cc1nn(C)c(C)c1S(=O)(=O)N1CCc2c(oc3c([C@@H](C)Nc4ccc(Cl)nc4C(=O)O)cc(F)cc3c2=O)C1` [Compound C125], the pIC50 is below 5.30 in assay [1] and at least 6.30 in assay [2].

In the case of `Cc1ncn(C)c1S(=O)(=O)N1CCc2c(oc3c([C@@H](C)Nc4ccc(Cl)nc4C(=O)O)cc(F)cc3c2=O)C1` [Compound C126], the pIC50 in assay [1] was below 5.30; in assay [2], 5.70 to 6.30.

`C[C@@H]1CN(S(=O)(=O)N2CCc3c(oc4c([C@@H](C)Nc5ccc(Cl)nc5C(=O)O)cc(F)cc4c3=O)C2)C[C@@H](C)O1` [Compound C127]: the pIC50 in assay [1] is below 5.30; in assay [2] it was at least 6.30.

With `Cc1cnn(C)c1S(=O)(=O)N1CCc2c(oc3c([C@@H](C)Nc4ccc(Cl)nc4C(=O)O)cc(F)cc3c2=O)C1` [Compound C128], the pIC50 in assay [1] is below 5.30; in assay [2], at least 6.30.

For the compound `C[C@@H](Nc1ccc(Cl)nc1C(=O)O)c1cc(F)cc2c(=O)c3c(oc12)CN(S(=O)(=O)c1cc(F)cc(F)c1F)CC3` [Compound C129], the figures for the pIC50 in assay [1] and in assay [2] were below 5.30 and at least 6.30, respectively.

`C[C@@H](Nc1ccc(Cl)nc1C(=O)O)c1cc(F)cc2c(=O)c3c(oc12)CN(S(=O)(=O)N1CCOC(C)(C)C1)CC3` [Compound C130]: the results for the pIC50 in assay [1] and in assay [2] were below 5.30 and at least 6.30, respectively.

For `C[C@H]1CN(S(=O)(=O)N2CCc3c(oc4c([C@@H](C)Nc5ccc(Cl)nc5C(=O)O)cc(F)cc4c3=O)C2)C[C@H](C)O1` [Compound C132], the pIC50 is below 5.30 in assay [1] and at least 6.30 in assay [2].

Consider `CC1CN(S(=O)(=O)N2CCc3c(oc4c(C(C)Nc5ccc(Cl)nc5C(=O)O)cc(F)cc4c3=O)C2)CC(C)O1` (stereo not drawn) [Compound C133], for which the negative-log IC50 (pIC50) in assay [1] was below 5.30; in assay [2] it was at least 6.30.

In the case of `Cc1nnn(C)c1S(=O)(=O)N1CCc2c(oc3c([C@@H](C)Nc4ccc(Cl)nc4C(=O)O)cc(F)cc3c2=O)C1` [Compound C134], the pIC50 in assay [1] is below 5.30; in assay [2] it was at least 6.30.

For `C[C@@H](Nc1ccc(Cl)nc1C(=O)O)c1cc(F)cc2c(=O)c3c(oc12)CN(S(=O)(=O)c1c(F)ccc(F)c1F)CC3` [Compound C135], the values for the pIC50 in assay [1] and in assay [2] were below 5.30 and at least 6.30, respectively.

As for `C[C@@H](Nc1ccc(Cl)nc1C(=O)O)c1cc(F)cc2c(=O)c3c(oc12)CN(S(=O)(=O)c1cccn2ncc(Cl)c12)CC3` [Compound C137], the pIC50 is below 5.30 in assay [1] and at least 6.30 in assay [2].

Turning to `C[C@@H](Nc1ccc(Cl)nc1C(=O)O)c1cc(F)cc2c(=O)c3c(oc12)CN(S(=O)(=O)C1=CCOCC1)CC3` [Compound C138], the pIC50 in assay [1] was below 5.30; in assay [2], at least 6.30.

Regarding `Cc1cc([C@@H](C)Nc2ccccc2C(=O)O)c2oc3c(c(=O)c2c1)CCN(S(=O)(=O)c1c(C)noc1C)C3` [Compound C139], the pIC50 is below 5.30 in assay [1] and at least 6.30 in assay [2].

As to `Cc1noc(C)c1S(=O)(=O)N1CCc2c(oc3c([C@@H](C)Nc4ccccc4C(=O)O)cc(F)cc3c2=O)C1` [Compound C140], the negative-log IC50 (pIC50) was below 5.30 in assay [1] and at least 6.30 in assay [2].

Regarding `C[C@@H](Nc1ccccc1C(=O)O)c1cc(F)cc2c(=O)c3c(oc12)CN(S(=O)(=O)N1CCC(F)(F)CC1)CC3` [Compound C141], the results for the pIC50 in assay [1] and in assay [2] were below 5.30 and 5.70 to 6.30, respectively.

On to `Cc1cc([C@@H](C)Nc2ccccc2C(=O)O)c2oc3c(c(=O)c2c1)CCN(S(=O)(=O)N1CCOC(C)(C)C1)C3` [Compound C142], for which the values for the pIC50 in assay [1] and in assay [2] were below 5.30 and at least 6.30, respectively.

With `C[C@@H](Nc1ccccc1C(=O)O)c1cc(F)cc2c(=O)c3c(oc12)CN(S(=O)(=O)N1CCOC(C)(C)C1)CC3` [Compound C143], the values for the pIC50 in assay [1] and in assay [2] were below 5.30 and at least 6.30, respectively.

For `Cc1cc([C@@H](C)Nc2ccccc2C(=O)O)c2oc3c(c(=O)c2c1)CCN(S(=O)(=O)N1CCO[C@H](C)C1)C3` [Compound C144], the values for the pIC50 in assay [1] and in assay [2] were below 5.30 and at least 6.30, respectively.

In the case of `C[C@@H]1CN(S(=O)(=O)N2CCc3c(oc4c([C@@H](C)Nc5ccccc5C(=O)O)cc(F)cc4c3=O)C2)CCO1` [Compound C145], the pIC50 in assay [1] was below 5.30; in assay [2], at least 6.30.

Regarding `C[C@@H](Nc1ccccc1C(=O)O)c1cc(F)cc2c(=O)c3c(oc12)CN(S(=O)(=O)C1CCOCC1)CC3` [Compound C146], the pIC50 in assay [1] is below 5.30; in assay [2], at least 6.30.

Regarding `Cc1cc([C@@H](C)Nc2ccccc2C(=O)O)c2oc3c(c(=O)c2c1)CCN(S(=O)(=O)N1CCOC2(CC2)C1)C3` [Compound C147], the results for the pIC50 in assay [1] and in assay [2] were below 5.30 and at least 6.30, respectively.

As for `C[C@@H](Nc1ccccc1C(=O)O)c1cc(F)cc2c(=O)c3c(oc12)CN(S(=O)(=O)N1CCOC2(CC2)C1)CC3` [Compound C148], the figures for the negative logarithm of the IC50 (pIC50) in assay [1] and in assay [2] were below 5.30 and at least 6.30, respectively.

As to `Cc1cc([C@@H](C)Nc2ccccc2C(=O)O)c2oc3c(c(=O)c2c1)CCN(S(=O)(=O)c1cccc2c1CCO2)C3` [Compound C149], the pIC50 in assay [1] is below 5.30; in assay [2], at least 6.30.

For `C[C@@H](Nc1ccccc1C(=O)O)c1cc(F)cc2c(=O)c3c(oc12)CN(S(=O)(=O)c1cccc2c1CCO2)CC3` [Compound C150], the pIC50 was below 5.30 in assay [1] and at least 6.30 in assay [2].

Turning to `Cc1cc([C@@H](C)Nc2ccccc2C(=O)O)c2oc3c(c(=O)c2c1)CCN(S(=O)(=O)c1c(Cl)ccc2c1CCO2)C3` [Compound C151], the pIC50 in assay [1] was below 5.30; in assay [2], at least 6.30.

For `C[C@@H](Nc1ccccc1C(=O)O)c1cc(F)cc2c(=O)c3c(oc12)CN(S(=O)(=O)c1c(Cl)ccc2c1CCO2)CC3` [Compound C152], the negative logarithm of the IC50 (pIC50) in assay [1] was below 5.30; in assay [2], at least 6.30.

For the compound `Cc1cc([C@@H](C)Nc2ccccc2C(=O)O)c2oc3c(c(=O)c2c1)CCN(S(=O)(=O)N1CCC(F)(F)CC1)C3` [Compound C153], the pIC50 is below 5.30 in assay [1] and at least 6.30 in assay [2].

Regarding `Cc1cc([C@@H](C)Nc2ccccc2C(=O)O)c2oc3c(c(=O)c2c1)CCN(S(=O)(=O)N1C[C@@H](C)O[C@H](C)C1)C3` [Compound C154], the pIC50 in assay [1] was below 5.30; in assay [2] it was at least 6.30.

Broadly, the pIC50 is the negative decadic logarithm of the IC50, by convention in mol/L.

Values taken from patent EP4772513A1, “PI3K-ALPHA INHIBITOR AND USE THEREOF” (TYK Medicines (Zhengzhou), Inc., priority 2023, dated 2025).
